Data published in patent US20240391904A1, “DIHYDROPYRIMIDINE BASED COMPOUND, PREPARATION METHOD THEREFOR AND USE OF THEREOF” (CHENGDU SHIBEIKANG BIOMEDICAL TECHNOLOGY CO., LTD., priority 2021, published 2024).
Marks after values point to notes of the source that are not given here.

Assays:
KM mice = assay: Mouse cough test (ammonia-induced coughing); assay type: in vivo; conditions: for Number of Coughs (time): mice
Source text: Compounds of Example 1-24 (synthesized in the inventor's laboratory), positive control drug (gefapixant, batch No: 01030-210326-2-1, purchased from Holder Pharmaceuticals), the compound of Comparative Example 1 (synthesized in the inventor's laboratory).
Healthy adult KM mice, half of them are male and half of them are female, 6 per group, weighing about 28-30 g.
Most of the animal coughing models currently reported in the literatures use mechanical, chemical and electrical stimulations to stimulate the nerves and receptors of the animals to trigger coughing. According to the characteristics of the candidate compounds and the existing similar target compounds for reference, the method of concentrated ammonia induction was initially chosen to establish the cough modeling test in mice.
Preparation of 50% ammonia solution: 2.5 ml of ammonia was dissolved in […] of a 0.9% sodium chloride solution for injection and mixed evenly.
Preparation of a solution of the compound of Comparative Example 1: 9 mg of the compound of Comparative Example 1 was weighed and dissolved in 3 ml of a 0.5% CMC-Na solution, and mixed evenly to prepare a 3 mg/ml solution.
Preparation of a solution of the example compounds: 9 mg of the example compound was weighed and dissolved in 3 ml of a 0.5% CMC-Na solution, and mixed evenly to prepare a 3 mg/ml solution.
Grouping: a positive control group, a Comparative Example 1 group, Example 1 group-Example 24 group, and a model group were set up. Six KM mice were taken from each group and administered by gavage; here, the Comparative Example 1 group was given the compound of Comparative Example 1, the positive control group was given the positive control drug (gefapixant, commercially purchased), the Example groups were given the compounds prepared in the corresponding Examples, with each group given one of three dosages: 30 mg/kg, […], and 3 mg/kg; and the model group was given the same volume of 0.5% CMC-Na solution.
30 min, 60 min or 120 min after administration, the mice were placed in a 500 ml beaker with a cotton ball (weight 100±5 mg) containing 0.3 ml of 50% ammonia.
(1) Judgment criteria of coughing: coughing was manifest in contraction of abdominal muscles or chest contraction, with mouth wide opening and a coughing sound.
(2) The number of coughs (times) within 3 min was recorded with a stopwatch, and the data were statistically analyzed by software, with the data in each group shown in mean±standard deviation. A one-way analysis of variance among the groups was conducted, and P<0.05 was considered a difference having a statistical significance.

SD rats = assay: Taste disorder test (quinine water versus tap water intake); assay type: in vivo, rat
Protocol: Compounds of Examples 1, 9, 12, 15, 16, 24 (synthesized in the laboratory of the present inventor), the positive control drug (gefapixant, batch No: 01030-210326-2-1, purchased from Holder Pharmaceuticals).
0.9% sodium chloride solution for injection, quinine hydrochloride (Quinie, batch No: C12476271)
Healthy adult SD rats, all males, weighing about 280-300 g.
Preparation of 0.3 mM quinine solution: 119.20 mg of quinine hydrochloride was weighed and dissolved in 1000 ml of tap water, and mixed evenly.
Preparation of the test sample solution: 40 mg of a test sample was dissolved in DMSO and a solution of the solubilizer HS-15 was added, mixed evenly, and 16 ml of saline was added to formulate a 2.5 mg/ml solution.
Animal and grouping: male SD rats weighed about 160-180 g each, with 10 of a similar average weight in each group, were housed in seperate cages.
Drinking habit training: each group was given normal drinking water for 30 minutes at 8:30 am and 16:30 pm every day, and no access of water for the rest of the day for 5 days, and two bottles of water were changed every day at the left and right positions.
Administration: with no access to water the night before the experiment, in the following morning the test group was given 4 mL/kg (10 mg/kg) of the test sample by tail intravenous injection, and the model group was given 4 mL/kg (10 mg/kg) of 0.5% HS-15 by intravenous injection.
The animals were allowed to drink freely for 15 min, and the amount of water consumed from the two bottles was measured to the nearest 0.1 ml.
(2) Statistical analysis of the data: the drinking volume of the quinine bitter water and tap water were recorded separately, as well as the percentage of quinine water to the tap water, and the significance of the difference between the groups was determined by ANOVA.

[1] = cited from earlier work

In the case of `COc1cc(C(C)C)c(Oc2cnc(N)nc2N)cc1S(N)(=O)=O` [Positive control, gefapixant, reference compound], the “cough suppressing efficacy at 10 mg/kg” value (KM mice; 10 mg/kg, 60 min after administration) is reported as “did not have a significant effect in reducing coughs”, the “Number of Coughs (time)” value (KM mice; 10 mg/kg by gavage, 60 min after administration, coughs within 3 min) is reported as 38.83 time and the “Number of Coughs (time)” value (KM mice; 30 mg/kg by gavage, 30 min after administration, coughs within 3 min, ammonia-induced) is reported as 20.33* time. The “Number of Coughs (time)” value (KM mice; 30 mg/kg by gavage, 60 min after administration, coughs within 3 min (Table 5)) was 23.83** time, the “effect on the taste sense” value (SD rats; 10 mg/kg intravenously, quinine/tap water ratio compared with vehicle group) was “significant effect on the taste sense” and the “Quinine/tap water (%)” value (SD rats; 10 mg/kg tail intravenous injection, 0-15 min after administration, 0.3 mM quinine hydrochloride water versus tap water) was 79.01%**. For the same molecule, the primary efficacy endpoint ([1]; 15 mg twice a day) was “not met”, the 24-hour cough frequency ([1]; 45 mg twice a day, Week 12 (COUGH-1) and Week 24 (COUGH-2), compared to placebo) was “statistically significant reduction” and the “discontinuation due to adverse events” value ([1]; 45 mg) was “higher frequency”. The taste-related adverse events ([1]; 45 mg) was “higher incidence”.
